According to patent US8722690B2, “Mesoionic pesticides” (E I du Pont de Nemours and Company, priority 2009, dated 2014):

How the values were obtained:
Assay type in all cases: in vivo
[1] = system: potato leafhopper (Empoasca fabae); assay: whole plant or invertebrate; settings: 144 h, 6 days, Soleil bean plant, very good to excellent levels of control efficacy; for mortality at 50 ppm: sprayed at 50 ppm; for mortality at 10 ppm: sprayed at 10 ppm
Experimental: For evaluating control of potato leafhopper (Empoasca fabae) through contact and/or systemic means, the test unit consisted of a small open container with a 5-6-day-old Soleil bean plant (primary leaves emerged) inside. White sand was added to the top of the soil and one of the primary leaves was excised prior to application.
Test compounds were formulated and sprayed at 50 ppm and/or 10 ppm, and the tests were replicated three times as described for Test A. After spraying, the test units were allowed to dry for 1 h before they were post-infested with 5 potato leafhoppers (18-21-day-old adults). A black, screened cap was placed on the top of each test unit, and the test units were held for 6 days in a growth chamber at 24° C. and 70% relative humidity. Each test unit was then visually assessed for insect mortality.

[2] = system: green peach aphid (Myzus persicae); assay: whole plant or invertebrate; settings: 144 h, 6 days, radish plant; for mortality at 50 ppm: sprayed at 50 ppm
Text: For evaluating control of green peach aphid (Myzus persicae) through contact and/or systemic means, the test unit consisted of a small open container with a 12-15-day-old radish plant inside. This was pre-infested by placing on a leaf of the test plant 30-40 aphids on a piece of leaf excised from a culture plant (cut-leaf method). The aphids moved onto the test plant as the leaf piece desiccated. After pre-infestation, the soil of the test unit was covered with a layer of sand.
Test compounds were formulated and sprayed at 50 ppm and/or 10 ppm as described for Test A. The applications were replicated three times. After spraying of the formulated test compound, each test unit was allowed to dry for 1 h and then a black, screened cap was placed on top. The test units were held for 6 days in a growth chamber at 19-21° C. and 50-70% relative humidity. Each test unit was then visually assessed for insect mortality.

[3] = system: cotton melon aphid (Aphis gossypii); assay: Test D: control of cotton melon aphid on cotton plant, contact and/or systemic; settings: for mortality at 50 ppm: sprayed at 50 ppm
Text: For evaluating control of cotton melon aphid (Aphis gossypii) through contact and/or systemic means, the test unit consisted of a small open container with a 6-7-day-old cotton plant inside. This was pre-infested with 30-40 insects on a piece of leaf according to the cut-leaf method described for Test C, and the soil of the test unit was covered with a layer of sand.
Test compounds were formulated and sprayed at 50 ppm and/or 10 ppm as described for Test C. The applications were replicated three times. After spraying, the test units were maintained in a growth chamber and then visually rated as described for Test C.

[4] = system: corn planthopper (Peregrinus maidis); assay: whole plant or invertebrate; settings: 144 h, 6 days, maize plant, very good to excellent levels of control efficacy; for mortality at 10 ppm: sprayed at 10 ppm; for mortality at 50 ppm: sprayed at 50 ppm
Experimental: For evaluating control of corn planthopper (Peregrinus maidis) through contact and/or systemic means, the test unit consisted of a small open container with a 3-4-day-old maize plant (spike) inside. White sand was added to the top of the soil prior to application. Test compounds were formulated and sprayed at 50 ppm and/or 10 ppm, and replicated three times as described for Test A. After spraying, the test units were allowed to dry for 1 h before they were post-infested with ˜15-20 nymphs (18 to 21 day old) by sprinkling them onto the sand with a salt shaker. A black, screened cap was placed on the top of each test unit, and the test units were held for 6 days in a growth chamber at 22-24° C. and 50-70% relative humidity. Each test unit was then visually assessed for insect mortality.

O=c1c(-c2ccccc2)c([O-])[n+](Cc2cnc(Cl)s2)c2c3ccsc3ccn12 [Compound 356]
≥ 80%: mortality at 50 ppm [1]

CCn1ccn2c(=O)c(-c3cccc(C(F)(F)F)c3)c([O-])[n+](Cc3cnc(Cl)s3)c12 [Compound 340]
≥ 80%: mortality at 50 ppm [2] | mortality at 10 ppm ([3]; sprayed at 10 ppm) | mortality at 50 ppm [3] | mortality at 10 ppm [4] | mortality at 50 ppm [4] | mortality at 50 ppm [1]

O=c1c(-c2ccccc2F)c([O-])[n+](Cc2cnc(Cl)s2)c2c3ccsc3ccn12 [Compound 357]
≥ 80%: mortality at 50 ppm [2] | mortality at 10 ppm [1] | mortality at 50 ppm [1]

CCn1ccn2c(=O)c(-c3ccccc3)c([O-])[n+](Cc3cnc(Cl)s3)c12 [Compound 333]
≥ 80%: mortality at 10 ppm ([2]; sprayed at 10 ppm) | mortality at 50 ppm [2] | mortality at 50 ppm [3] | mortality at 10 ppm [4] | mortality at 50 ppm [4] | mortality at 10 ppm [1] | mortality at 50 ppm [1]
